Source: publication PMC12737022, “Evaluations of Sex Differences in Dosimetry in Rats Following Perfluorohexanesulfonamide (PFHxSA) Oral Exposure” (Toxics, 2025)
Where “and” joins values, the source holds several entries; their conditions need not be identical. Identical values can stand only once. Like-named read-outs stand apart in the source and are kept apart here.

How the values were obtained:
[1] = Liver dosimetry of PFHxSA and PFHxS by targeted LC/MS/MS; assay type: in vivo, rat; details: for concentration at 24 h: Sprague Dawley (Crl:CD(SD)), rat, liver, oral
From the text: The plasma and liver samples for this investigation were provided by Mutlu et al.. The study design, including detailed descriptions of animal handling, procedures for dosing, clinical observations, termination, and collection of tissues, is reported elsewhere and is consistent with the ARRIVE guidelines. Briefly, male and female Sprague Dawley (SD) rats (Crl:CD(SD)) (n = 48/sex, 96 total) were purchased from Charles River Laboratory (Raleigh, NC, USA) and allowed to acclimate for ≥5 days before initial dosing. Rats were 8–10 weeks old at the time of exposure. PFHxSA dosing solutions in corn oil were prepared on Day 0 and used over the course of the study. Rats of both sexes (n = 5/sex, dose, and time point, plus eight vehicle controls per sex) were dosed by oral gavage (5 mL/kg body weight) once daily for five days. […] The formulation concentrations decreased from 100 mg/kg/day at half-log10 intervals until the lowest dose level, which was a full log10 interval below the next higher dose, giving eight dose levels (0.01 to 100 mg/kg/day or 0.025 µmol/kg/day to 250 µmol/kg/day) in addition to vehicle controls. Doses were administered in randomized order within ± 1 h on each day of dosing. […] Rats were euthanized 24 h after the last dose. Blood was collected via cardiac puncture with tripotassium ethylene diamine tetraacetic acid (K3EDTA) as an anti-coagulant and centrifuged to collect cell-free plasma. Liver was collected and flash-frozen in liquid nitrogen. Liver, plasma, and dosing formulation samples were frozen at the USEPA Center for Computational Toxicology and Exposure (CCTE), Durham, NC, USA. Tissue samples (plasma and liver, n = 96 each) were stored at ≤−70 °C prior to extraction; dosing formulation samples (n = 9) were stored at −20 °C.
Detailed information on solvents and standards used for targeted LC/MS/MS of PFHxSA and PFHxS can be found in SI Text S1 and SI Table S1. Plasma and liver preparations were modified from Conley et al.. Briefly, aliquots of plasma (25 µL) and liver (~10 mg) were spiked with PFOSA as an internal standard, as no isotope-labeled PFHxSA was available. Sample batches included up to 96 samples along with an MB, CCV, and LCS for QC. Commercial plasma (mixed-sex SD rat plasma) and liver (mixed-sex SD rat) were obtained from BioIVT (Westbury, NY, USA). Cold acetonitrile (ACN) with 0.1 M formic acid was used to precipitate proteins. Liver and plasma samples were prepared similarly, except that the livers were homogenized after solvent addition. Plasma samples were vortexed to mix before being chilled at −20 °C, after which samples were centrifuged at 5 °C and 10,000× g. Liver samples were chilled at −80 °C, then homogenized using an Omni International (Kennesaw, GA, USA) Bead Ruptor 24. Liver homogenates were centrifuged at 26,000× g and 5 °C. Supernatants from the extraction of both matrices were removed and stored at −20 °C until analysis. Refer to SI Text S4 for additional experimental details and information on calibration and QC parameters for quantitation of PFHxSA.
Targeted LC/MS/MS of PFHxSA was performed on a Sciex 4000 QTRAP LC/MS/MS system operated in negative ESI mode with MRM scanning. A Restek (Bellefonte, PA, USA) Raptor Polar X (100 mm × 2 mm, 2.7 µm) column was used for liquid chromatography. Isocratic elution occurred over 10 min with a 30:70 ratio of mobile phase A (10 mM ammonium formate): mobile phase B (60:40 ACN: methanol). Both mobile phases included 0.05% formic acid. The LOQs for PFHxSA were 0.100 µM in plasma and 0.351 µM in liver. Additional details of the instrument method parameters for targeted analysis of PFHxSA are provided in SI Table S5. The MRM transitions for the PFHxSA method are provided in SI Table S6. […]

[2] = In vitro-in vivo extrapolation (IVIVE) to estimate Css, rat
Experimental: Intrinsic hepatic clearance (Clint) and fraction unbound in plasma (fup) were calculated from the experimental point estimate data as described in Dobreniecki et al.. Steady-state concentrations (Css) were derived based on zero-order uptake of an assumed daily dose from the gut (assuming 100% intestinal bioavailability) but considering hepatic clearance and non-metabolic renal clearance. Renal clearance was calculated using the glomerular filtration rate (a species-dependent constant) and the fraction unbound in blood (fub), estimated by adjusting the experimental fup for blood/plasma partitioning. The Css calculations, along with underlying species-specific physiologic scalars, are detailed in SI Texts S6 and S7. […]
hepatocytes). In equation (C), the scalar 2000 is used to adjust the assay cell number to be consistent with units of 1 million cells in the Clint equation.
Text S7 In Vitro-In Vivo Extrapolation (IVIVE) Calculations
The pharmacokinetic equation used to estimate expected steady-state concentrations (Css) is based on zero-order uptake of a daily dose from the gut (assuming 100% bioavailability) with both nonmetabolic renal clearance (Clrenal) and hepatic clearance (Clhepatic) (Equation D). The chemical input rate (ko) is the product of the intake dosage and the model body weight; this represents the numerator of Equation D. The Clrenal calculation is shown in the first part of the denominator of Equation D; it is the product of the species-dependent glomerular filtration rate (GFR) and the unbound fraction in blood (fub) of the parent compound. The Clhepatic calculation is shown in the second part of the denominator of Equation D; it is the product of the species-dependent liver blood flow constant, the fub of the parent compound, and the experimentally derived intrinsic clearance (shown in Equation C) divided by the sum of these three values. All values used in Equation D are for first-order conditions of metabolism in the […]

## NS(=O)(=O)C(F)(F)C(F)(F)C(F)(F)C(F)(F)C(F)(F)C(F)(F)F [PFHxSA, Perfluorohexanesulfonamide]
[1]; PFHxSA 0.1 mg/kg/day oral 5 days, female, individual rats
  PFHxSA Female Liver Conc. (wet weight): 0.491 µM and 0.599 µM and 0.338 µM and 0.434 µM
[1]; PFHxSA 0.1 mg/kg/day oral 5 days, male, individual rats
  PFHxSA Male Liver Conc. (wet weight): 0.191 ng/mg and 0.0842 ng/mg and 0.479 µM and 0.211 µM and 0.156 ng/mg and 0.391 µM and 0.746 µM and 0.503 µM and 0.298 ng/mg and 0.201 ng/mg
[1]; PFHxSA 0.3 mg/kg/day oral 5 days, female, individual rats
  PFHxSA Female Liver Conc. (wet weight): 1.47 µM and 1.96 µM and 1.26 µM and 1.74 µM
[1]; PFHxSA 0.3 mg/kg/day oral 5 days, male, individual rats
  PFHxSA Male Liver Conc. (wet weight): 0.462 ng/mg and 0.399 ng/mg and 1.26 µM and 0.604 µM and 1.30 µM and 1.16 µM and 1.00 µM and 0.503 ng/mg
[1]; PFHxSA 1 mg/kg/day oral 5 days, female, individual rats
  PFHxSA Female Liver Conc. (wet weight): 2.91 µM and 2.52 µM and 4.17 µM and 4.76 µM and 6.64 µM
[1]; PFHxSA 1 mg/kg/day oral 5 days, male, individual rats
  PFHxSA Male Liver Conc. (wet weight): 0.846 ng/mg and 1.00 ng/mg and 1.09 ng/mg and 1.18 ng/mg and 2.12 µM and 2.51 µM and 2.73 µM and 2.97 µM
[1]; PFHxSA 3 mg/kg/day oral 5 days, female, individual rats
  PFHxSA Female Liver Conc. (wet weight): 7.94 µM and 4.86 µM and 6.40 µM and 9.55 µM and 10.8 µM
[1]; PFHxSA 3 mg/kg/day oral 5 days, male, individual rats
  PFHxSA Male Liver Conc. (wet weight): 1.92 ng/mg and 1.86 ng/mg and 1.63 ng/mg and 2.14 ng/mg and 4.81 µM and 4.67 µM and 4.08 µM and 5.36 µM
[1]; PFHxSA 10 mg/kg/day oral 5 days, female, individual rats
  PFHxSA Female Liver Conc. (wet weight): 6.97 µM and 8.65 µM and 7.58 µM and 9.86 µM
[1]; PFHxSA 10 mg/kg/day oral 5 days, male, individual rats
  PFHxSA Male Liver Conc. (wet weight): 5.65 ng/mg and 3.24 ng/mg and 4.53 ng/mg and 4.26 ng/mg and 14.2 µM and 8.13 µM and 11.4 µM and 10.7 µM
[1]; PFHxSA 30 mg/kg/day oral 5 days, female, individual rats
  PFHxSA Female Liver Conc. (wet weight): 15.8 ng/mg and 7.72 ng/mg and 10.1 ng/mg and 8.88 ng/mg and 23.9 µM and 39.6 µM and 19.4 µM and 25.2 µM and 22.3 µM
[1]; PFHxSA 30 mg/kg/day oral 5 days, male, individual rats
  PFHxSA Male Liver Conc. (wet weight): 4.86 ng/mg and 3.36 ng/mg and 4.47 ng/mg and 6.25 ng/mg and 12.2 µM and 8.43 µM and 11.2 µM and 15.7 µM
[1]; PFHxSA 100 mg/kg/day oral 5 days, female, individual rats
  PFHxSA Female Liver Conc. (wet weight): 20.7 ng/mg and 12.3 ng/mg and 37.7 ng/mg and 20.9 ng/mg and 16.1 ng/mg and 52.0 µM and 30.8 µM and 94.6 µM and 52.3 µM and 40.3 µM
[1]; PFHxSA 100 mg/kg/day oral 5 days, male, individual rats
  PFHxSA Male Liver Conc. (wet weight): 14.9 ng/mg and 19.0 ng/mg and 6.87 ng/mg and 4.89 ng/mg and 5.61 ng/mg and 37.4 µM and 47.6 µM and 17.2 µM and 12.3 µM
[1]; female, 0.1 mg/kg/day, PFHxSA 0.1 mg/kg/day oral 5 days, female, individual rats, read-out: PFHxSA Female Liver Conc. (wet weight)
  concentration at 24 h: 436 nM and 174 ng/g
[1]; female, 0.3 mg/kg/day, PFHxSA 0.3 mg/kg/day oral 5 days, female rats, mean ± SD, read-out: PFHxSA Female Liver Conc.
  concentration at 24 h: 1.69 ± 0.32 µM
[1]; female, 0.3 mg/kg/day, PFHxSA 0.3 mg/kg/day oral 5 days, female, individual rats, read-out: PFHxSA Female Liver Conc. (wet weight)
  concentration at 24 h: 2.03 µM and 811 ng/g
[1]; female, 1 mg/kg/day, PFHxSA 1 mg/kg/day oral 5 days, female rats, mean ± SD, read-out: PFHxSA Female Liver Conc.
  concentration at 24 h: 4.2 ± 1.6 µM
[1]; female, 3 mg/kg/day, PFHxSA 3 mg/kg/day oral 5 days, female rats, mean ± SD, read-out: PFHxSA Female Liver Conc.
  concentration at 24 h: 7.91 ± 2.4 µM
[1]; female, 10 mg/kg/day, PFHxSA 10 mg/kg/day oral 5 days, female rats, mean ± SD, read-out: PFHxSA Female Liver Conc.
  concentration at 24 h: 8.41 ± 1.1 µM
[1]; female, 10 mg/kg/day, PFHxSA 10 mg/kg/day oral 5 days, female, individual rats, read-out: PFHxSA Female Liver Conc. (wet weight)
  concentration at 24 h: 8.98 µM and 3580 ng/g
[1]; female, 30 mg/kg/day, PFHxSA 30 mg/kg/day oral 5 days, female rats, mean ± SD, read-out: PFHxSA Female Liver Conc.
  concentration at 24 h: 26.1 ± 7.9 µM
[1]; male, 0.3 mg/kg/day, PFHxSA 0.3 mg/kg/day oral 5 days, male rats, mean ± SD, read-out: PFHxSA Male Liver Conc.
  concentration at 24 h: 1.06 ± 0.28 µM
[1]; male, 1 mg/kg/day, PFHxSA 1 mg/kg/day oral 5 days, male rats, mean ± SD, read-out: PFHxSA Male Liver Conc.
  concentration at 24 h: 2.48 ± 0.39 µM
[1]; male, 1 mg/kg/day, PFHxSA 1 mg/kg/day oral 5 days, male, individual rats, read-out: PFHxSA Male Liver Conc. (wet weight)
  concentration at 24 h: 821 ng/g and 2.06 µM
[1]; male, 3 mg/kg/day, PFHxSA 3 mg/kg/day oral 5 days, male rats, mean ± SD, read-out: PFHxSA Male Liver Conc.
  concentration at 24 h: 4.67 ± 0.47 µM
[1]; male, 3 mg/kg/day, PFHxSA 3 mg/kg/day oral 5 days, male, individual rats, read-out: PFHxSA Male Liver Conc. (wet weight)
  concentration at 24 h: 1780 ng/g and 4.45 µM
[1]; male, 10 mg/kg/day, PFHxSA 10 mg/kg/day oral 5 days, male rats, mean ± SD, read-out: PFHxSA Male Liver Conc.
  concentration at 24 h: 10.6 ± 2.5 µM
[1]; male, 10 mg/kg/day, PFHxSA 10 mg/kg/day oral 5 days, male, individual rats, read-out: PFHxSA Male Liver Conc. (wet weight)
  concentration at 24 h: 3370 ng/g and 8.44 µM
[1]; male, 30 mg/kg/day, PFHxSA 30 mg/kg/day oral 5 days, male rats, mean ± SD, read-out: PFHxSA Male Liver Conc.
  concentration at 24 h: 11.6 ± 2.6 µM
[1]; male, 30 mg/kg/day, PFHxSA 30 mg/kg/day oral 5 days, male, individual rats, read-out: PFHxSA Male Liver Conc. (wet weight)
  concentration at 24 h: 4320 ng/g and 10.8 µM
[2]; Rat, IVIVE-derived, assumes 1 mg/kg/day exposure
  Css (steady-state concentration): 138 µM
[2]; Rat, non-metabolic, GFR x fub, read-out: Clrenal (renal clearance) (converted)
  CL renal: 0.00167 mL/min
[2]; rat, 1 mg/kg/day, female and male rat plasma, respectively
  IVIVE-derived Css higher than in vivo plasma concentration: 6.5–12.1 fold and 6.5–12 fold
